From patent US4927659A, “Tris-hydroxymethyl lower alkane esters as fat mimetics” (Nabisco Brands, Inc., priority 1989, dated 1990)

Assays:
[1] = in vivo animal feeding study for caloric availability (body weight gain); parameters: species or system male Sprague-Dawley rats; conditions: rats, diet of 50% fort and 21% test compound, 14 days
Description: This example illustrates how the novel fat mimetics of this invention are screened for caloric availability by a carefully controlled in vivo animal feeding study.
An experimental relationship between total calories ingested and animal body weight gain is established by monitoring the body weight gain associated with consumption of a nutritionally balanced diet containing varying concentrations of a reference substance such as corn oil which has a known caloric availability. Correlations between total calories ingested and body weight gain are excellent (r=0.99).
Caloric availability of an unknown substance is evaluated by substituting a specific weight of the unknown substance for the reference substance and observing the body weight gain. The gain in body weight is equated to a total number of calories using the correlation previously established for the reference data. The estimated number of calories ingested are divided by the weight of unknown substance to give the apparent calories per gram for the unknown substance. Generally speaking, in these bioavailability studies, the degree of perianal pelt soiling correlates with reduced bioavailability.
The test animals are six-week-old male Sprague-Dawley rats obtained from the Portage, Mich. facility of the Charles River Laboratories, Inc. After acclimation for 15 days, the test duration is 14 days. […]

[2] = test system: porcine pancreatic lipase; assay: in vitro digestibility: hydrolysis by pancreatic lipase (TLC densitometry); type: in vitro ADME; conditions: in 10 minutes, triglyceride control, 37° C., pH 7.1
Method: This example outlines the procedure for estimating the in vitro digestibility of the synthetic fat mimetics of this invention.
1. Buffer: A pH 7.1 phosphate buffer is prepared by dissolving 6.8 g. KH2 PO4 in 1 L. of millipore filtered water (to yield 0.05 M phosphate). Fifty mg. Ca(NO3)2 and 5.0 g. cholic acid (Na salt, an ox bile isolate from Sigma) are added to give 300 microM Ca^++ and 0.5 % cholic acid in 0.05 M phosphate. The pH is adjusted to approximately 7.1 with solid NaOH. Several drops of Baker "Resi-analyzed" toluene are added to prevent bacterial growth during storage at 3-5° C.
2. Lipase: About 15 mg./mL commercial porcine pancreatic lipase from U.S. Biochemical Corporation is dissolved in buffer.
3. Substrates and Standards: A 1.0 mL volumetric flask is charged with an amount of lipid substrate (test substance or standard) calculated to give a concentration of 200 nanomoles per microliter in Baker "Resi-analyzed" toluene. (The proper concentration may be approximated by […] the molecular weight of the lipid in question, dividing by 10, and diluting to the mark; this yields about 200 nanomoles per microliter.) This preparation affords the substrate to be used in the hydrolysis reactions. […]

## CCCCCCCC/C=C\CCCCCCCC(=O)OCC(C)(COC(=O)CCCCCCC/C=C\CCCCCCCC)COC(=O)CCCCCCC/C=C\CCCCCCCC [Example 1, 1,1,1-Tris-hydroxymethylethane trioleate]
[1]
  caloric availability (kcal/gram upon being metabolized): about 3.3 kcal/gram

## CCCCCCCC/C=C\CCCCCCCC(=O)OCC(COC(=O)CCCCCCC/C=C\CCCCCCCC)OC(=O)CCCCCCC/C=C\CCCCCCCC [triolein]
[2]
  hydrolysis by pancreatic lipase: substantially hydrolyzed
